Legend:
isolated rat heart [1] = experiment: Recovery of the developed pressure of a heart subjected to ischemia-reperfusion (Example 18); conditions: 10 μM BXT 52051 or 2 μM BXT 52052; 12 minutes prior to ischemia and during reperfusion; FIG. 4
Experimental: In the same experimental model as that described in Example 17, the study of BXT 52051 and BXT 52052 is carried out by perfusing the heart with the perfusion medium containing 10 μM BXT 52051 or 2 μM BXT 52052 for 12 minutes prior to the period of ischemia, as well as during the reperfusion. The degradation of the cardiac function is evaluated from the measurement of hemodynamic parameters (systolic and telediastolic ventricular pressures) by determining over time the percentage recovery of the developed pressure (difference between systolic and telediastolic pressure) during the reperfusion, compared to that recorded just before the period of ischemia (stabilized developed pressure).

double-stranded DNA = experiment: Prevention of the degradation of DNA by the system Fe(II)-citrate/H2O2/ascorbate; format: biochemical, phage lambda; conditions: 25 μM test molecule (table) + 20 μM Fe(2+)-citrate, 200 μM ascorbate, 200 μM H2O2, 1 hour at 37° C.
Experimental: After this incubation for one hour, 220 U/ml of catalase are then added to the reaction medium and the integrity of the DNA is measured by spectrofluorimetry after the addition of 10 μl of a 5 mM solution of ethidium bromide to the reaction medium (excitation wavelength: 510 nm; emission wavelength: 590 nm).
The effect of the test molecule is measured by determining the percentage of intact DNA, the value of 100% being determined under the same experimental conditions in the absence of the system Fe(II)-citrate/H2 O2 /ascorbate and the test molecule.

[2] = tested on: erythrocytic glutathione peroxidase; experiment: Prevention of the inactivation of glutathione peroxidase by hypochlorous acid; format: biochemical, bovine; conditions: 25 μM test molecule + 10 μM hypochlorous acid, 2 minutes at 37° C.; 100% = no hypochlorous acid and no test molecule
Experimental: In a 50 mM potassium phosphate buffer of pH 7.0 containing 0.1 mM DTPA, a quantity of erythrocytic glutathione peroxidase of bovine origin is incubated for 2 minutes at 37° C., at a final concentration of 1.5 U/ml, in the presence of 10 μM hypochlorous acid and in the presence or absence of a molecule described in the present invention (at 25 μM).
After incubation for 2 minutes, 100 μl of this reaction medium are then added to 1.5 ml of 50 mM Tris buffer of pH 7.6 (at 37° C.) containing 0.1 mM DTPA, 0.165 mM β-NADPH, 2.2 mM reduced glutathione and 1.1 U/ml of glutathione disulfide reductase.
Then, after the addition of 50 μl of 6.6 mM t-butyl hydroperoxide, the glutathione peroxidase activity is determined at 37° C. by measuring the decrease in absorbance at 340 nm for 2 minutes.
They are expressed as a percentage of the glutathione peroxidase activity determined under the same experimental conditions in the absence of hypochlorous acid and the test molecule.

[3] = tested on: glucose-6-phosphate dehydrogenase; experiment: Prevention of the inactivation of glucose-6-phosphate dehydrogenase by the system Cu(II)/ascorbate/O2; format: biochemical, Leuconostoc mesenteroides; conditions: 25 μM test molecule + 4.5 μM Cu(2+) + 360 μM ascorbate, 5 minutes at 37° C.; 100% = no system and no test molecule
Experimental: In a 50 mM potassium phosphate buffer of pH 7.0, a quantity of glucose-6-phosphate dehydrogenase (purified from Leuconostoc mesenteroides) is incubated for 5 minutes at 37° C., at a final concentration of 1.2 U/ml, in the presence of 4.5 μM copper sulfate and 360 μM ascorbate and in the presence or absence of a molecule described in the present invention (at 25 μM). After incubation for 5 minutes, 20 μl of this reaction medium are then added to 980 μl of 50 mM Tris buffer of pH 7.5 (at 37° C.) containing 0.380 mM β-NADP^+, 3.3 mM glucose-6-phosphate and 6.3 mM magnesium chloride. The glucose-6-phosphate dehydrogenase activity is then determined at 37° C. by measuring, the increase in absorbance at 340 nm for 7 minutes. They are expressed as a percentage of the glucose-6-phosphate dehydrogenase activity determined under the same experimental conditions in the absence of the system Cu(II)/ascorbate/O2 and the test molecule.

isolated rat heart [4] = conditions: 100 μmolar; after 15 min of ischemia; cited from earlier work
[5] = tested on: ferryl forms of the hemoproteins; conditions: physiological pH; produced in the presence of H2O2; cited from earlier work
[6] = physiological conditions (concentrations and pH); cited from earlier work
[7] = pulsed radiolysis or Fenton reaction; cited from earlier work
oxyhemoglobin = conditions: micromolar concentrations; sodium nitrite; in vitro; cited from earlier work
[8] = tested on: isolated and perfused rat heart; experiment: Inhibition of cardiac necrosis induced by ischemia-reperfusion, modified perfusion solution (Example 17); conditions: 20 μM BXT 52053, 600 μM albumin (BSA) or 100 μM L-ergothioneine; 12 minutes before ischemia and first 30 minutes of reperfusion; FIG. 3
Experimental: In the same experimental model as that described in Example 16, the composition of the perfusion solution was modified such that it contains 2.5 mM CaCl2 and 2.4 mM MgCl2) (all else being moreover equal). The effect of BXT 52053 is then compared to that of albumin and L-ergothioneine.
This study is carried out by perfusing the heart with the perfusion solution containing 20 μM BXT 52053, or 600 μM albumin (BSA), or 100 μM L-ergothioneine, during the 12 minutes preceding the period of ischemia, then during the first 30 minutes of post-ischemic reperfusion.
The degradation of the myocardial tissue due to the ischemia and/or reperfusion is evaluated by determining the total quantity of creatine phosphokinase (CPK) released into the perfusate during the period of reperfusion. The results are expressed in milliunits of enzyme activity per milligram of heart and per minute.

[9] = in the presence of metal salts (Fe^++); cited from earlier work
[10] = physiological conditions (concentrations and pH); cited from earlier work; remark: listed apart in the source
[11] = quenching excited states of photosensitizers such as rose bengal; cited from earlier work
[12] = tested on: isolated and perfused rat heart; experiment: Inhibition of cardiac necrosis induced by ischemia-reperfusion, perfused isolated heart (Example 16); conditions: 2 μM in perfusion medium 12 minutes prior to ischemia and during reperfusion
Experimental: Male Sprague-Dawley rats weighing between 250 and 350 grams are injected intraperitoneally with a solution of sodium heparinate (40 units/100 g). The rats are anesthetized with ether 30 minutes later. The heart is then quickly removed and perfused by Langendorff's method (see 0. LANGENDORFF: Pflugers Arch. Physiol. Mensch. Tiere; (1895); 61; page 291) with electrical stimulation at a frequency of 300/min. The perfusion solution, equilibrated with 95% of oxygen and 5% of carbon dioxide, consists of a modified Krebs-Henseleit buffer (pH 7.4) of the following composition: NaCl118 mM, KCl 4.7 mM, MgSO4 1.2 mM, CaCl2 1 mM, KH2 PO4 1.2 mM, NaHCO3 25 mM and glucose 11 mM. The whole set-up is thermostatically controlled at 37° C.
The functional state of the heart is monitored by measurement of the following hemodynamic parameters: heart rate, systolic and telediastolic ventricular pressures (the difference between these expressing the developed pressure) and minimal and maximal slopes of the pressure variations as a function of time. […]
In addition, the alteration of the myocardial tissue is evaluated by determining the concentration, in the perfusate, of two cytosolic enzymes released into the perfusion medium, namely creatine phosphokinase (CPK) and lactate dehydrogenase (LDH). […]

Compound	% intact DNA (double-stranded DNA) [%]	% glutathione peroxidase activity [2] [%]	% glucose-6-phosphate dehydrogenase activity [3] [%]	other results
C[N+](C)(C)CC(CC(=O)[O-])OC(=O)CCc1c[nH]c(S)n1 (stereo not drawn) [BXT 52052, carnitine 3-(2'-mercaptoimidazol-4'-yl)propanoate]				recovery of the ventricular developed pressure during reperfusion (isolated rat heart [1]): recovered much more rapidly and reaches a higher value
NC(=O)CCc1c[nH]c(=S)[nH]1 [BXT 52029, 3-(2'-mercaptoimidazol-4'-yl)propanamide]	78.0	93.2	92.3	
C[N+](C)(C)[C@@H](Cc1c[nH]c(=S)[nH]1)C(=O)[O-] [L-ergothioneine, L-(+)-Ergothioneine]				extent of cell necrosis (lactate dehydrogenase activity of the effluent) (isolated rat heart [4]): limits the extent of cell necrosis; reduction of ferryl forms of hemoproteins [5]: reduces the ferryl forms of the hemoproteins; reaction with hydrogen peroxide [6]: reacts neither; reaction with OH radicals [7]: kinetics close to the maximum rate of diffusion; inhibition of methemoglobin formation (oxyhemoglobin): effectively inhibit the formation of methemoglobin; total quantity of CPK released into the perfusate during 30 minutes of reperfusion [8]: no significant effect; stimulation of peroxidation of polyunsaturated fatty acids [9]: does not stimulate the peroxidation of polyunsaturated fatty acids; reaction with superoxide anion [10]: reacts neither; photoproduction of singlet oxygen [11]: inhibits the photoproduction of singlet oxygen
albumin: albumin (BSA), comparison agent in the perfusion solution				total quantity of CPK released into the perfusate during 30 minutes of reperfusion [8]: no significant effect
O=C(O)CCc1c[nH]c(=S)[nH]1 [BXT 52020, 3-(2'-mercaptoimidazol-4'-yl)propanoic acid]	76.2	94.8	92.3	
CN(C)[C@@H](Cc1c[nH]c(=S)[nH]1)C(=O)O [BXT 52040, 2'-mercapto-Nα,Nα-dimethyl-L-(+)-histidine]	75.3	99.1	104.6	
NCCc1c[nH]c(=S)[nH]1 [BXT 52022, 2-(2'-mercaptoimidazol-4'-yl)ethylamine]	80.2	94.4	94.4	
CCOC(=O)CCc1c[nH]c(=S)[nH]1 [BXT 52021, ethyl 3-(2'-mercaptoimidazol-4'-yl)propanoate]	78.0	94.7	93.7	systolic pressure of heart subjected to ischemia-reperfusion [12]: maintained
